# Experimental data: paper PMC7661526, “Antibiofilm effects of N,O-acetals derived from 2-amino-1,4-naphthoquinone are associated with downregulation of important global virulence regulators in methicillin-resistant Staphylococcus aureus” (Scientific Reports, 2020)
# Read-outs that look alike come from different tables or passages of the source.
# Assays:
# [1] = system: MRSA ST239-SCCmecIII (BMB9393); experiment: Disk diffusion test; format: cell-based, Staphylococcus aureus
# [2] = system: S. aureus ATCC 25923; experiment: Disk diffusion test; format: cell-based, Staphylococcus aureus
# From the text: (§1) Strain representatives of six globally spread clones/lineages of MRSA were used in this study to test the antimicrobial activity of the N,O-acetal derivatives against MRSA: NY/Japan-USA100/ST5-SCCmecII (strain CR15-071), USA300/ST8-SCCmecIV (strain USA300-0114), USA400/ST1-SCCmecIV (strain USA400-0051), Brazilian epidemic clone-BEC/ST239-SCCmecIII (strain BMB9393), pediatric clone-USA800/ST5-SCCmecIV (strain USA800-0179), and OSPC-USA1100/ST30-SCCmecIV (strain 07-040). The S. aureus ATCC 25923 was used as a control for the experiment of drug susceptibility. […] For biofilm production, tryptic soy broth (TSB; BD, Franklin Lakes, NJ, USA) was supplemented with 1% (w/v) glucose (TSB-Glu). Tryptic soy agar (TSA; BD) was used for bacterial growth. The Mueller-Hinton broth (MHB; BD) and Mueller-Hinton agar (MHA; BD) was used for susceptibility tests. All strains were maintained in 10% (v/v) glycerol stocks and stored at − 80 °C.
# (§2) The antibacterial activity of 6a and its derivatives 7a, 7b, and 7c was tested as previously described using paper disks impregnated with each compound[13]. The derivatives were also analyzed quantitatively using microdilution assays in 96-well inert polystyrene microtiter plates (Nuclon; Nalge Nunc International, Rochester, NY, USA) to determine the minimal inhibitory concentration (MIC)[14]. Biological control, as well as growth conditions, were performed following CLSI recommendation[15],[16]. […] Controls were also performed using 2% (v/v) DMSO only.
# [3] = system: MRSA ST5-SCCmecII (USA100); experiment: Disk diffusion test; format: cell-based, Staphylococcus aureus
# [4] = system: MRSA ST8-SCCmecIV (USA300); experiment: Disk diffusion test; format: cell-based, Staphylococcus aureus
# [5] = system: MRSA ST30-SCCmecIV (USA1100); experiment: Disk diffusion test; format: cell-based, Staphylococcus aureus
# [6] = system: MRSA strain BMB9393 biofilm; experiment: Biofilm development on polystyrene, crystal violet; format: cell-based, Staphylococcus aureus; settings: 1/4MIC (6a 32 µg/mL, 7a 64 µg/mL, vancomycin 0.5 µg/mL); strain BMB9393
# Protocol: Biofilms were formed on polystyrene surfaces using the BEC representative, strain BMB9393. […] The same volume of the bacterial culture in TSB-Glu (37 °C/18 h; at 250 rpm) diluted 1/100 in the same broth was added to the wells. After incubation (37 °C/24 h), supernatants were gently removed, rinsed with distilled water, and treated with crystal violet solution as described. […] Eight independent tests with three replicates each were performed. Controls were inoculated with the same bacterial inoculum but using only TSB-Glu with 2% (v/v) DMSO, final concentration.
# [7] = system: MRSA strain CR15-071 (USA100) cells persistent to vancomycin; experiment: Vancomycin-persistent cells, high bacterial load on TSA plates; format: cell-based, Staphylococcus aureus; settings: vancomycin alone, 4MIC (8 µg/mL) plates, high inoculum
# Protocol: For this test, we choose the MRSA strain CR15-071 representative of the ST5-SCCmecII lineage (NY/Japan-USA100 clone), since this MRSA has replaced the ST239-SCCmecIII (the Brazilian clone) in this country, and is now the most frequent MRSA lineage in Brazilian hospitals. […]. The plates were incubated at 37 °C/24 h before being examined. […]. Bacterial growth was determined by removing persistent cells from the plates and determining UFC/ml. Controls were also performed using 2% (v/v) DMSO only. Three independent experiments were performed in triplicate.
# [8] = system: MRSA (ST1-SCCmecIV) (USA400); experiment: Disk diffusion test; format: cell-based, Staphylococcus aureus
# [9] = Hemocompatibility assay; settings: human, pH 7.4
# Protocol: (§3) Erythrocytes were collected from three human volunteers in a citrate tube and washed three times (3×) with PBS (pH 7.4). All derivatives were incubated with the PBS-erythrocyte suspension for 3 h at 37 °C. The hemolysis with the release of hemoglobin was quantified by the spectrophotometric reading of the supernatant at 545 nm. Hemolysis less than 10% represented hemocompatibility and non-toxicity against erythrocyte membranes. For the positive control, the human erythrocytes were lysed with 1% (v/v) Triton X-100. The negative control was performed with 1% (v/v) DMSO only (final concentration). […] All methods were carried out in accordance with relevant guidelines and regulations. In addition, informed consent was obtained from all volunteers. Three independent experiments were performed in triplicate.
# [10] = system: MRSA ST5-SCCmecIV (USA800); experiment: Disk diffusion test; format: cell-based, Staphylococcus aureus
# [11] = system: MRSA USA400 (USA400-0051); experiment: MIC, broth microdilution; format: cell-based, Staphylococcus aureus
# Protocol: (§4) For biofilm production, tryptic soy broth (TSB; BD, Franklin Lakes, NJ, USA) was supplemented with 1% (w/v) glucose (TSB-Glu). Tryptic soy agar (TSA; BD) was used for bacterial growth. The Mueller-Hinton broth (MHB; BD) and Mueller-Hinton agar (MHA; BD) was used for susceptibility tests. All strains were maintained in 10% (v/v) glycerol stocks and stored at − 80 °C.
# as §2, with “The” for “The antibacterial activity of 6a and its derivatives 7a, 7b, and 7c was tested as previously described using paper disks impregnated with each compound[13]. The”
# [12] = system: MRSA USA300 (USA300-0114); experiment: MIC, broth microdilution; format: cell-based, Staphylococcus aureus
# Protocol: as §4
# as §2, with “The” for “The antibacterial activity of 6a and its derivatives 7a, 7b, and 7c was tested as previously described using paper disks impregnated with each compound[13]. The”
# [13] = system: MRSA OSPC-USA1100 (07-040); experiment: MIC, broth microdilution; format: cell-based, Staphylococcus aureus
# Protocol: as §4
# as §2, with “The” for “The antibacterial activity of 6a and its derivatives 7a, 7b, and 7c was tested as previously described using paper disks impregnated with each compound[13]. The”
# [14] = system: MRSA Pediatric-USA800 (USA800-0179); experiment: MIC, broth microdilution; format: cell-based, Staphylococcus aureus
# Protocol: as §4
# as §2, with “The” for “The antibacterial activity of 6a and its derivatives 7a, 7b, and 7c was tested as previously described using paper disks impregnated with each compound[13]. The”
# [15] = system: MRSA NY/Japan-USA100 (CR15-071); experiment: MIC, broth microdilution; format: cell-based, Staphylococcus aureus
# Protocol: as §4
# as §2, with “The” for “The antibacterial activity of 6a and its derivatives 7a, 7b, and 7c was tested as previously described using paper disks impregnated with each compound[13]. The”
# [16] = system: Vero cell line; experiment: Cytotoxicity assay (MTT); settings: Vero cells, 24 h, MTT
# Protocol: (§5) Plates were incubated for 1 h, the supernatant again removed, and 200 µL dimethyl sulfoxide (DMSO) were added to each well to dissolve the formazan crystals for 10 min. Absorbance was measured at 570 nm using an ELISA reader (Thermo Plate, TP-READER, Thermo Fisher Scientific). […] The selectivity index (SI) was calculated as follows: SI (µg/mL) = CC50/MIC[17]. Three independent experiments were performed in triplicate. Controls were performed using 2% (v/v) DMSO only.
# [17] = system: human erythrocytes; experiment: Hemocompatibility assay; settings: highest concentration evaluated (300 µg/mL), 3 h at 37 °C
# Protocol: as §3
# [18] = system: S. aureus ATCC 25923; experiment: MIC, broth microdilution; format: cell-based, Staphylococcus aureus
# From the text: as §1, §2
# [19] = system: MRSA BEC (BMB9393); experiment: microbe, parasite or virus in culture; format: cell-based, Staphylococcus aureus
# Protocol: as §4
# as §2, with “The” for “The antibacterial activity of 6a and its derivatives 7a, 7b, and 7c was tested as previously described using paper disks impregnated with each compound[13]. The”
# [20] = Cytotoxicity assay (MTT); settings: African green monkey, Vero cell monolayers
# Protocol: as §5
# [21] = Table 2, used for SI, strain not given, values of 6a-7c equal those for BEC (BMB9393)
SMILES,Inhibition zone [1] [mm],Inhibition zone [2] [mm],Inhibition zone [3] [mm],Inhibition zone [4] [mm],Inhibition zone [5] [mm],Effect on biofilm development [6],Inhibition zone [8] [mm],Inhibition zone [10] [mm],"MIC [19, 21] [µg/mL]",other results
"CN[C@H](CC(C)C)C(=O)N[C@H]1C(=O)N[C@@H](CC(N)=O)C(=O)N[C@H]2C(=O)N[C@H]3C(=O)N[C@H](C(=O)N[C@H](C(=O)O)c4cc(O)cc(O)c4-c4cc3ccc4O)[C@H](O)c3ccc(c(Cl)c3)Oc3cc2cc(c3O[C@@H]2O[C@H](CO)[C@@H](O)[C@H](O)[C@H]2O[C@H]2C[C@](C)(N)[C@H](O)[C@H](C)O2)Oc2ccc(cc2Cl)[C@H]1O [Vancomycin, vancomycin, reference compound]",14±1.0,13±1.0,16±1.5,17±1.0,16±1.5,not able to reduce biofilm development,16±2.0,17±1.5,–,Refractory/persistent cells recovered [7]: 4.5 × 10^8 CFU/mL; hemolysis at 3 h [9]: 3.6 ± 0.8%
"COCNC1=CC(=O)c2ccccc2C1=O [7a, 2-(methoxymethyl)-amino-1,4-naphthoquinone]",10±1.5,9.7±2.0,12±1.0,14±1.0,13±1.0,much less effective at reducing biofilm development compared with 7b or 7c,13±2.0,12±1.0,256,"MIC ([11]; broth microdilution, USA400 (USA400-0051)): 128 µg/mL; MIC ([12]; broth microdilution, USA300 (USA300-0114)): 128 µg/mL; MIC ([13]; broth microdilution, OSPC-USA1100 (07-040)): 256 µg/mL; MIC ([14]; broth microdilution, Pediatric-USA800 (USA800-0179)): 256 µg/mL; MIC ([15]; broth microdilution, NY/Japan-USA100 (CR15-071)): 256 µg/mL; CC50 [16]: 155.28 ± 1.03 µg/mL; Hemolysis, maximum values [17]: 3.10 ± 0.1%; MIC ([18]; control strain S. aureus ATCC 25923): 128 µg/mL; MIC ([19]; broth microdilution, BEC (BMB9393)): 256 µg/mL"
"NC1=CC(=O)c2ccccc2C1=O [6a, 2-amino-1,4-naphthoquinone]",8±2.0,9±1.4,9±1.0,9±1.0,10±0.5,much less effective at reducing biofilm development compared with 7b or 7c,8±1.2,8±1.0,128,"MIC ([11]; Staphylococcus aureus): 128 µg/mL; MIC ([12]; Staphylococcus aureus): 256 µg/mL; MIC ([13]; Staphylococcus aureus, MRSA): 256 µg/mL; MIC ([14]; Staphylococcus aureus): 128 µg/mL; MIC ([15]; Staphylococcus aureus): 256 µg/mL; CC50 at 24 h [20]: 97.3 ± 3.12 µg/mL; hemolysis at 3 h, 300 µg/mL ([9]; human erythrocyte suspension): 3 ± 0.9%; MIC ([18]; Staphylococcus aureus, ATCC25923, control strain S. aureus ATCC 25923, read-out: MIC): 32 µg/mL; MIC ([19]; Staphylococcus aureus, MRSA): 128 µg/mL"
